Source: patent US7071197B2, “N,N-disubstituted diazocycloalkanes” (Recordati S.A., priority 2002, dated 2006)

Key:
[1] = target: T1, human cloned 5-HT1A receptors (Homo sapiens, UniProt P08908); experiment: [35S]GTPγS binding, membranes of HeLa cells transfected with human cloned 5-HT1A receptors; assay type: biochemical; settings: 5-HT maximal stimulation taken as 100%
T1 construct: expressed in transfected cells
T1 sequence (P08908 1-422): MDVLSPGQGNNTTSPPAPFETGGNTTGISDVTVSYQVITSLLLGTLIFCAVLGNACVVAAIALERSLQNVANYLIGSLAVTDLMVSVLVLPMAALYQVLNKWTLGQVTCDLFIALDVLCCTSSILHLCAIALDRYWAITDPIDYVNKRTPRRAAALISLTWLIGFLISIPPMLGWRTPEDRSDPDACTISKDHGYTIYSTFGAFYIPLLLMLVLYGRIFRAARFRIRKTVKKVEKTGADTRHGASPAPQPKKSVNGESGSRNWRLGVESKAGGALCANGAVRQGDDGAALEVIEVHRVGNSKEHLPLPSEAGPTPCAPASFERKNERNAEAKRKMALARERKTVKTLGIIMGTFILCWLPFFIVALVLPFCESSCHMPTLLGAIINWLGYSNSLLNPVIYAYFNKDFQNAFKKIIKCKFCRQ
Protocol: A genomic clone coding for the human 5HT1A-serotonergic receptor was stably transfected in a human cell line (HeLa). HeLa cells were grown as monolayers in Dulbecco's modified Eagle medium (DMEM), containing 10% fetal bovine serum, gentamycin (0.1 mg/ml) and 5% carbon dioxide, at 37° C. The cells were detached from the growth flask at 95% confluence by a cell scraper and were lysed in cold 5 mM Tris and 5 mM EDTA buffer (pH 7.4). The homogenates were centrifuged at 40000×g×20 minutes and the pellets were resuspended in a small volume of cold 5 mM Tris and 5 mM EDTA buffer (pH 7.4) and immediately frozen and stored at −70° C. until use.
[^35S]GTPγS binding: on the experimental day, cell membranes from HeLa cells transfected with human cloned 5-HT1A receptors were resuspended in buffer pH 7.4 containing 20 mM HEPES, 3 mM MgCl2 and 120 mM NaCl (Stanton, J. A.; Beer, M. S. Eur. J. Pharmacol. 320, 267–275, 1997). The membranes were incubated with 10 μM GDP and decreasing concentrations of test drugs (from 100 μM to 0.1 nM) or decreasing concentrations of 5-HT (from 100 μM to 0.1 nM, reference curve) for 20 min at 30° C. in a final volume of about 0.25 ml. [^35S]GTPγS ([…] in 10 μl) was added to samples and incubated for a further 30 min at 30° C. Non-specific binding was determined in the presence of 10 μM GTPγS. The incubation was stopped by addition of ice-cold HEPES buffer and rapid filtration on Unifilter GF/C filters, using a Filtermate cell harvester (Packard). The filters were washed four times with total 1.2 ml of same buffer. Radioactivity was counted by liquid scintillation spectrometry with efficiency >90% (TopCount Packard). Stimulation of [^35S]GTPγS binding induced by the compounds tested was espressed as % increase in binding above basal value, being the maximal stimulation observed with 5-HT taken as 100%. The concentration-response curve of the agonistic activity was analyzed by non linear fitting program (De Lean et al., Am. J. Physiol. 235, E97-E102, 1978).
A stimulation of [^35S]GTPγS binding represented the functional correlate of the binding of an agonist compound at the 5-HT1A receptors. Stimulation induced by the endogenous ligand 5-HT was considered the maximal stimulation attainable.

[2] = target: T2, rat D3 dopamine receptors (Rattus norvegicus, UniProt P19020); experiment: [3H]-7-OH-DPAT binding to rat recombinant D3 dopamine receptors (SPA); settings: for Ki: [3H]-7-OH-DPAT, CHO cell membranes, read-out: Binding affinity for D3 dopamine receptors Ki; for D3/5-HT1A: selectivity: ratio of Ki at D3 and Ki at 5-HT1A
T2 construct: expressed in transfected cells; host or cells: CHO cells (permanent expression)
Protocol: Cloned rat D3 dopamine receptors permanently expressed in CHO cells were used (Chio et al. Mol. Pharmacol. 45, 51–60, 1994). Membranes were prepared by mechanical disruption of cell pellets in ice cold 50 mM Tris, 5 mM EDTA, 5 mM EGTA, pH 7.4 followed by low (100 g), medium (20000 g) and high (80000 g) speed centrifugation steps. Competition radioligand binding experiments employed 11 drug concentrations run in duplicate in a scintillation proximity assay (SPA) format. The radioligand used was [^3H]-7-OH-DPAT (154 Ci/mmol). […] binding (75–95% of total) was defined with cold haloperidol added in excess (3 μM). Total binding was determined with buffer: 20 mM HEPES, 10 mM MgSO4, 150 mM NaCl, 1 mM EDTA (pH 7.4). Binding mixtures were made in flexible, 96-well, Wallac Micro-Beta plates by the addition of 11 μl of drug dilution, 11 μl of radioligand, and 178 μl of membrane/SPA bead suspension (100 mg of WGA-coated SPA beads incubated with 5–15 μg protein/plate in 10 ml binding buffer for 30 minutes at room temperature followed by low-speed centrifugation and resuspension in 2 ml binding buffer). After sealing and incubation at room temperature for 1 hour the plates were counted in a Wallac Micro-Beta scintillation counter.
IC50 values from both assay methods were estimated by fitting the data to a one-site competition model: Y=T/(1+10^log(X)−log(IC50)), where Y is the specific CPM's bound at concentration X and T is the specific CPM's bound in the absence of competitor. Inhibition constants (Ki) were calculated using the Cheng-Prushoff equation (Biochem. Pharmacol. 22: 3099–3108, 1973).

T2 sequence (P19020 whole entry): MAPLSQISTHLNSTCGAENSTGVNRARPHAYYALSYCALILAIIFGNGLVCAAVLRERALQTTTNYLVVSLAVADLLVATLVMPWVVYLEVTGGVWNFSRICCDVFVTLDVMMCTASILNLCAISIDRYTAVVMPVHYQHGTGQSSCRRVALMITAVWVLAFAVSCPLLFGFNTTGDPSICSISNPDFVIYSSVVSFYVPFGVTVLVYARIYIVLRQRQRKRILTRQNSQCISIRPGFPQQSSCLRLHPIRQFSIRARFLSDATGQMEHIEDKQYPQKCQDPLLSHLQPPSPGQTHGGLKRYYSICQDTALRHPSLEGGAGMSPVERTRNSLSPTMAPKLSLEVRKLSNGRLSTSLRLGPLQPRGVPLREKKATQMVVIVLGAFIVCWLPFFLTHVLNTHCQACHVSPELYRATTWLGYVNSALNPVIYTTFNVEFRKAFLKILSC

Functional effect ([35S]GTPγS binding) [1] | Ki [2] | D3/5-HT1A [2] | SMILES
Neutral antagonist | 12.5 nM | 96 | COc1ccccc1N1CCN(CC[C@@H](c2ccccc2F)[C@H](O)C2CCCCC2)CC1 (racemic) [Ex. 1, 1-[(SR-RS)-4-cyclohexyl-4-hydroxy-3-(2-fluorophenyl)-butyl]-4-(2-methoxyphenyl)-piperazine]
Neutral antagonist | 7 nM | 11 | COc1ccccc1N1CCN(CC[C@H](c2ccccc2)[C@@H](O)C2CCCCC2)CC1 (racemic) [Ex. 5, 1-[(RS,SR)-4-Cyclohexyl-4-hydroxy-3-phenyl-butyl]-4-(2-methoxyphenyl)-piperazine, reference compound]
Neutral antagonist | 20 nM | 54 | COc1ccccc1N1CCN(CC[C@H](c2ccccc2F)[C@@H](O)C2CCCCC2)CC1 [Ex. 1Y, 1-[(3R,4S)-4-cyclohexyl-4-hydroxy-3-(2-fluorophenyl)-butyl]-4-(2-methoxyphenyl)-piperazine]
Neutral antagonist | 3 nM | 12 | COc1ccccc1N1CCN(CC[C@H](c2ccccc2F)[C@H](O)C2CCCCC2)CC1 [Ex. 2X, 1-[(3R,4R)-4-cyclohexyl-4-hydroxy-3-(2-fluorophenyl)-butyl]-4-(2-methoxyphenyl)-piperazine]
